The text below walks through data of patent US20170313758A1, “Polypeptides for the Treatment of Angiogenesis or Lymphangiogenesis-Related Diseases” (INSERM (Institut National de la Sante et de la Recherche …, priority 2014, published 2017).

The test system of assay [1] is HMEC endothelial cells. The experiment in a line: MTT assay, proliferation of HMEC endothelial cells. Format: cell-based, human. As to conditions: treatment for 48 h, FIG. 13. Here is the method: (§1) Human microvascular endothelial (HMEC) cells line derived from dermal microvasculature (T. Lawley, Emory University, Atlanta, GA) were maintained in MCDB-131 medium (Gibco, Invitogen) with 10% fetal bovine serum (FBS) (Invitrogen), 2 ml glutamine (Invitrogen), 10 ng/ml endothelial growth factor (Upstate Biotechnology/Millipore), and 1 μg/ml hydrocortisone (Sigma-Aldrich). Primary melanoma M10 cells, established from patient primary nodular melanoma were maintained in RPMI medium (Gibco, Invitogen) with 10% FBS, Hepes 1 M, pyruvate Nas, and glutamine (Invitrogen). Human breast carcinoma MDA-MB-231 cells were maintained in Dulbecco's modified Eagle's medium (DMEM) (Gibco, Invitogen) with 10% FBS (Invitrogen) and 2m1 glutamine (Invitrogen). Melanoma BLM cells (American Type Culture Collection (ATCC Manassas, Va.)) were maintained in DMEM containing 4.5 g/l glucose, 10% FBS, 100 U/ml penicillin and […] streptomycin. HEK293T cells (ATCC) were cultured in DMEM medium (Gibco, Invitogen) supplemented with 10% FBS (Invitrogen), 100 U/ml penicillin, 100 mg/ml streptomycin and 2 ml glutamine (Invitrogen).
As VEGFR-2 has been implicated in regulation of endothelial cells migration/invasion and proliferation processes, we first investigated the effect of EMMPRIN inhibitor peptide (PI) on endothelial cell proliferation. […]

Assay [2] deals with M10 melanoma cells. Kind of assay: Modified Boyden chamber invasion assay, M10 melanoma cells. Format: cell-based, human. Conditions: 500 nM, compared to control PC-treated cells, mean, FIG. 14. How it is done: as §1, with “HEK293T cells (ATCC) were cultured in DMEM medium (Gibco, Invitogen) supplemented with 10% FBS (Invitrogen), 100 U/ml penicillin, 100 mg/ml streptomycin and 2 ml glutamine (Invitrogen).” left out
The in vitro migration (on uncoated filters) and invasion (on coated filters with matrigel, BD Bioscience) were performed using a modified Boyden chamber in 24-well plates and […] pore filter inserts (BD Bioscience). After 24h of incubation, cells were fixed, stained with crystal violet 0.5% and counted under a light microscope. […]

Assay [3] concerns the target T1, EMMPRIN/VEGFR-2 interaction (Homo sapiens, UniProt P35968).
T1 construct: endogenous in cells; HMEC and M10 are the cells used in the neighbouring peptide experiments
Kind of assay: Immunoprecipitation of EMMPRIN/VEGFR-2 interaction in treated cells. As to conditions: FIG. 15. Format: cell-based. Here is the method: For immunoprecipitation, cell lysates were incubated with antibodies against targeted proteins and Protein G-sepharose beads (Sigma). Immunoprecipitated proteins were subjected to sodium dodecyl sulphate-polyacrylamide gel electrophoresis then transferred to Nitrocellulose membranes and probed with anti-EMMPRIN mAb (555961, BD-Pharmingen), anti-VEGF (C-1) mAb (Sc-7269, Santa Cruz), anti-VEGFR-2 rabbit pAb (Sc-504, Santa Cruz-) or anti-pVEGFR-2 (Tyr 1175) rabbit mAb (2478, Cell Signaling). The proteins were visualized with ECL reagent (Pierce), and their expression was normalized relative to total cell lysate protein concentration.
(§2) No effect on ERK phosphorylation could be observed when the cells were treated with PC (FIGS. 15 and 16).

For assay [4], the system named is ERK phosphorylation. Kind of assay: ERK activation signalling (ERK phosphorylation) in treated cells. Format: cell-based. Conditions: FIG. 16. Here is the method:
as §2

Assay [5] addresses T2, VEGFR-2 (human, UniProt P35968 20-1356).
T2 construct: Endogenous receptor of human cells (HMEC, M10, MDA-MB-231, BLM); the whole entry is named; also called KDR
The experiment in a line: VEGFR-2 immunoprecipitation, EMMPRIN western blot, transfected BLM-EMMPRIN-miRNA cells. How it is done:
For immunoprecipitation, cell lysates were incubated with antibodies against targeted proteins and Protein G-sepharose beads (Sigma). […] The proteins were visualized with ECL reagent (Pierce), and their expression was normalized relative to total cell lysate protein concentration.
(In general: Immunoblotting shows a protein as a band on a membrane.)

T1 sequence (P35968 20-1356): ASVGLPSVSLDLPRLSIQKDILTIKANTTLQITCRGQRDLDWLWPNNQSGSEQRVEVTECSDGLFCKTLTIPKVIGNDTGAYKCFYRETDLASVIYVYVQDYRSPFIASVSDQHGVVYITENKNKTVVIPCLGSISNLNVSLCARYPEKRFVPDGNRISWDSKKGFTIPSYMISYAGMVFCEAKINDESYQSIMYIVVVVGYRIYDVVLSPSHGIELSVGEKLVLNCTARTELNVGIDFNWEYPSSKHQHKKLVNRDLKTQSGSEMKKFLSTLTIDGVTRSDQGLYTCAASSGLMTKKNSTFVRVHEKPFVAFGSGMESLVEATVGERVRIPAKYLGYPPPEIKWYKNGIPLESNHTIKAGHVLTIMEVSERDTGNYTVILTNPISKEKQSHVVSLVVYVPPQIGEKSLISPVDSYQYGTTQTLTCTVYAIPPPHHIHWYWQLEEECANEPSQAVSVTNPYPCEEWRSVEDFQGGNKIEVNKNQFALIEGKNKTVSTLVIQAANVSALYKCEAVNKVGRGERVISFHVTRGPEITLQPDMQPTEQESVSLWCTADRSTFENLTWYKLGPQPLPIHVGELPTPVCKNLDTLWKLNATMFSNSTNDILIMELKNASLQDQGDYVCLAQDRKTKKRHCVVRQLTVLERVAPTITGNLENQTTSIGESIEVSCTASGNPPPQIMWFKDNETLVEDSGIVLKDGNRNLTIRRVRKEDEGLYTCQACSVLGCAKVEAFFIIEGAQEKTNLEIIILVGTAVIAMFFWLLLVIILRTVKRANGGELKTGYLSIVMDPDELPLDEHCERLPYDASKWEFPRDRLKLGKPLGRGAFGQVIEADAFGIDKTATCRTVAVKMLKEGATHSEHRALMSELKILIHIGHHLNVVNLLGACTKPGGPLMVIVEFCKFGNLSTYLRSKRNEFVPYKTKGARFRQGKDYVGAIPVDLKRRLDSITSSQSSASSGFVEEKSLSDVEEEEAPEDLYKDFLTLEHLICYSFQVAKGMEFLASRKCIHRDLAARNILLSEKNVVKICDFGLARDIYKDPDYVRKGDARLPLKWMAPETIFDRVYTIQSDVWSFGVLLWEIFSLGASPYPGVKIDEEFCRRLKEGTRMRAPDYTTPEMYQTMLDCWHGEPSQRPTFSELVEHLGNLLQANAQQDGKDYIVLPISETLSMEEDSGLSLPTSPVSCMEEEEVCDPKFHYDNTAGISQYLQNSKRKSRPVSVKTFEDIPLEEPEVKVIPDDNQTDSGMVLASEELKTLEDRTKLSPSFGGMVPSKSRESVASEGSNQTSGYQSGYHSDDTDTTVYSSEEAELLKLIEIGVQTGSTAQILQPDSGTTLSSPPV
T2 sequence (P35968 20-1356 limits assumed): as the sequence (P35968 20-1356) above

As to “PI: EMMPRIN peptide inhibitor (PI); sequence not specified in the text”, the “inhibition of proliferation of HMEC cells” value in assay [1] is “approx. 50%”. The “decrease in M10 cell invasion capacity” value in assay [2] is 60%. Also, the EMMPRIN/VEGFR-2 interaction entry in assay [3] (100 nM) and in assay [3] (500 nM) was “able to decrease EMMPRIN/VEGFR-2 interaction” each time. In addition, the ERK phosphorylation entry in assay [4] is given as “significant decrease”.

B1: EMMPRIN D136A (receptor)
chain: AAGTVFTTVEDLGSKILLTCSLNDSATEVTGHRWLKGGVVLKEDALPGQKTEFKVDSDDQWGEYSCVFPPEPMGTANIQLHGPPRVKAVKSSEHINEGETAMLVCKSESVPPVTAWAWYKITDSEDKALMNGSESRFFVSSSQGRSELHIENLNMEADPGQYRCNGTSSKGSDQAIITLRVCSHLAALWPFLGIVAEVLVLVTIIFIYEKRRKPEDVLDDDDAGSAPLKSSGQHQNDKGKNVRQRNSS
notes: Full-length EMMPRIN cDNA mutant transfected into BLM-EMMPRIN-miRNA cells; also called control D136A; negative control D136A mutant
Consider B1, for which the binding result in assay [5] is “binds”.
